# Where two headings read alike, the source gives them in different places.
# Experiments:
# [1] = test system: C. difficile ATCC 43255 vegetative cells; test: Mode of action by scanning electron microscopy (SEM); details: 8× MIC for 24 h
# [2] = test system: B. licheniformis ATCC 12759; test: MIC against B. licheniformis; format: cell-based; details: Bacillus licheniformis, ATCC12759
# [3] = test system: S. epidermidis ATCC 35547; test: MIC against S. epidermidis; format: cell-based; details: Staphylococcus epidermidis, ATCC35547
# [4] = test system: Clostridioides difficile infection; details: CDI patients; cited from earlier work
# [5] = test system: B. licheniformis ATCC 12759; details: cited from earlier work
# [6] = test system: S. epidermidis ATCC 35547; details: cited from earlier work
# E. aerogenes ATCC35029 = details: cited from earlier work
# E. coli ATCC25922 = details: cited from earlier work
# MRSA = details: cited from earlier work
# [7] = test system: Lactobacillus reuteri HM-102; test: MIC against Lactobacillus reuteri (gut bacteria); format: cell-based; details: Limosilactobacillus reuteri, HM102
# [8] = test system: Lactobacillus gasseri HM-644; test: MIC against Lactobacillus gasseri (gut bacteria); format: cell-based; details: HM644
# [9] = test system: Corynebacterium spp. HM-784; test: MIC against Corynebacterium spp. (gut bacteria); format: cell-based; details: SPP.HM784
# HepG2 cells = test: XTT cytotoxicity assay; format: cell-based; details: Homo sapiens, HepG2, read-out: XTT IC50
# C. difficile strains = test: MIC (microdilution) against panel of 101 C. difficile strains; format: cell-based, Clostridioides difficile
# [10] = test system: Bacteroides fragilis HM-709; test: MIC against Bacteroides fragilis (gut bacteria); format: cell-based; details: HM709
# C. difficile ATCC 43255 = format: cell-based, Clostridioides difficile
# S. oralis ATCC 9811 = test: MIC against S. oralis; format: cell-based; details: Streptococcus oralis, ATCC9811
# [11] = C. difficile strains of Table 4
smiles,measurement,setting,value
"Cc1ncc([N+](=O)[O-])n1CCO [MTZ, metronidazole]",effect on vegetative cells by SEM,[1],No obvious effect
same,MIC,[2],> 256 µg/mL
same,MIC,[3],> 128 µg/mL
same,recurrence of infection,[4],27%
FC(F)(F)c1ccc(Oc2ccc(-c3noc(-c4ccc5[nH]ccc5c4)n3)cc2)cc1 [Compound 1],MIC,[5],8 µg/mL
same,MIC,[6],2 µg/mL
same,MIC,E. aerogenes ATCC35029,>128 µg/mL
same,MIC,E. coli ATCC25922,>128 µg/mL
same,efficacy in mouse models of MRSA infection,MRSA,efficacious
"O=[N+]([O-])c1cnc(-c2nc(-c3ccc(OC4CCCC4)cc3)no2)[nH]1 [Compound 57, 3-(4-(Cyclopentyloxy)phenyl)-5-(4-nitro-1H-imidazol-2-yl)-1,2,4-oxadiazole]",effect on vegetative cells by SEM,[1],damage to the cell wall
same,MIC,[7],> 128 µg/mL
same,MIC,[8],> 128 µg/mL
same,MIC,[9],> 128 µg/mL
same,IC50,HepG2 cells,53.4 ± 4.5 µg/mL
same,IMIC50 (101 strains),C. difficile strains; 101 C. difficile strains,0.5 µg/mL
same,MIC50,C. difficile strains; [11],0.5 µg/mL
same,MIC90,C. difficile strains; [11],1 µg/mL
same,MIC,"C. difficile strains; Clostridioides difficile, ATCC43598, strain ATCC43598",0.5 µg/mL
same,MIC,"C. difficile strains; Clostridioides difficile, BAA1801, strain BAA-1801",0.25 µg/mL
same,MIC,"C. difficile strains; Clostridioides difficile, BAA1804, strain BAA-1804",0.125 µg/mL
same,MIC,"C. difficile strains; Clostridioides difficile, BAA1812, strain BAA-1812",0.125 µg/mL
same,MIC,"C. difficile strains; Clostridioides difficile, BAA1814, strain BAA-1814",0.125 µg/mL
same,MIC,"C. difficile strains; Clostridioides difficile, BAA1870, strain BAA-1870",0.125 µg/mL
same,MIC,"C. difficile strains; Clostridioides difficile, C. difficile 24531, resistant to VAN",0.125 µg/mL
same,MIC,"C. difficile strains; Clostridioides difficile, C. difficile NR49292",0.125 µg/mL
same,MIC,"C. difficile strains; Clostridioides difficile, C. difficile NR49302",0.25 µg/mL
same,MIC,"C. difficile strains; Clostridioides difficile, C. difficile NR49305",0.125 µg/mL
same,MIC,"C. difficile strains; Clostridioides difficile, C. difficile NR49310",0.25 µg/mL
same,MIC,"C. difficile strains; Clostridioides difficile, strain HM-88",1 µg/mL
same,MIC,"C. difficile strains; Clostridioides difficile, strain HM-89",0.5 µg/mL
same,MIC,"C. difficile strains; Clostridioides difficile, strain HM-745",0.5 µg/mL
same,MIC,"C. difficile strains; Clostridioides difficile, strain HM-746",0.5 µg/mL
same,MIC,"C. difficile strains; Clostridioides difficile, strain HM-747",0.25 µg/mL
same,MIC,"C. difficile strains; Clostridioides difficile, strain NR49292",0.125 µg/mL
same,MIC,"C. difficile strains; Clostridioides difficile, strain NR49294",0.5 µg/mL
same,MIC,"C. difficile strains; Clostridioides difficile, strain NR49302",0.25 µg/mL
same,MIC,"C. difficile strains; Clostridioides difficile, strain NR49305",0.125 µg/mL
same,MIC,"C. difficile strains; Clostridioides difficile, strain NR49310",0.25 µg/mL
same,MIC,"C. difficile strains; Clostridioides difficile, strain NR49318",0.5 µg/mL
same,MIC,"C. difficile strains; Clostridioides difficile, strain NR-13427",0.5 µg/mL
same,MIC,"C. difficile strains; Clostridioides difficile, strain NR-13428",0.5 µg/mL
same,MIC,"C. difficile strains; Clostridioides difficile, strain NR-13429",0.5 µg/mL
same,MIC,"C. difficile strains; Clostridioides difficile, strain NR-13430",0.5 µg/mL
same,MIC,"C. difficile strains; Clostridioides difficile, strain NR-13431",0.5 µg/mL
same,MIC,"C. difficile strains; Clostridioides difficile, strain NR-13433",1 µg/mL
same,MIC,"C. difficile strains; Clostridioides difficile, strain NR-13434",0.125 µg/mL
same,MIC,"C. difficile strains; Clostridioides difficile, strain NR-13435",0.5 µg/mL
same,MIC,"C. difficile strains; Clostridioides difficile, strain NR-13436",0.5 µg/mL
same,MIC,"C. difficile strains; Clostridioides difficile, strain NR-13437",0.5 µg/mL
same,MIC,"C. difficile strains; Clostridioides difficile, strain NR-13438",0.25 µg/mL
same,MIC,"C. difficile strains; Clostridioides difficile, strain NR-13553",0.125 µg/mL
same,MIC,"C. difficile strains; Clostridioides difficile, strain NR-32882",0.5 µg/mL
same,MIC,"C. difficile strains; Clostridioides difficile, strain NR-32883",0.5 µg/mL
same,MIC,"C. difficile strains; Clostridioides difficile, strain NR-32884",0.5 µg/mL
same,MIC,"C. difficile strains; Clostridioides difficile, strain NR-32885",0.5 µg/mL
same,MIC,"C. difficile strains; Clostridioides difficile, strain NR-32886",0.5 µg/mL
same,MIC,"C. difficile strains; Clostridioides difficile, strain NR-32887",1 µg/mL
same,MIC,"C. difficile strains; Clostridioides difficile, strain NR-32888",1 µg/mL
same,MIC,"C. difficile strains; Clostridioides difficile, strain NR-32889",1 µg/mL
same,MIC,"C. difficile strains; Clostridioides difficile, strain NR-32890",0.125 µg/mL
same,MIC,"C. difficile strains; Clostridioides difficile, strain NR-32891",0.5 µg/mL
same,MIC,"C. difficile strains; Clostridioides difficile, strain NR-32892",0.25 µg/mL
same,MIC,"C. difficile strains; Clostridioides difficile, strain NR-32895",0.25 µg/mL
same,MIC,"C. difficile strains; Clostridioides difficile, strain NR-32896",0.25 µg/mL
same,MIC,"C. difficile strains; Clostridioides difficile, strain NR-32897",0.25 µg/mL
same,MIC,"C. difficile strains; Clostridioides difficile, strain NR-32900",0.25 µg/mL
same,MIC,"C. difficile strains; Clostridioides difficile, strain NR-32903",0.25 µg/mL
same,MIC,"C. difficile strains; Clostridioides difficile, strain NR-32904",0.125 µg/mL
same,MIC,"C. difficile strains; Clostridioides difficile, strain NR-49277",0.5 µg/mL
same,MIC,"C. difficile strains; Clostridioides difficile, strain NR-49278",0.5 µg/mL
same,MIC,"C. difficile strains; Clostridioides difficile, strain NR-49279",0.5 µg/mL
same,MIC,"C. difficile strains; Clostridioides difficile, strain NR-49280",0.25 µg/mL
same,MIC,"C. difficile strains; Clostridioides difficile, strain NR-49281",0.25 µg/mL
same,MIC,"C. difficile strains; Clostridioides difficile, strain NR-49282",0.5 µg/mL
same,MIC,"C. difficile strains; Clostridioides difficile, strain NR-49283",0.5 µg/mL
same,MIC,"C. difficile strains; Clostridioides difficile, strain NR-49284",0.5 µg/mL
same,MIC,"C. difficile strains; Clostridioides difficile, strain NR-49285",0.5 µg/mL
same,MIC,"C. difficile strains; Clostridioides difficile, strain NR-49286",0.5 µg/mL
same,MIC,"C. difficile strains; Clostridioides difficile, strain NR-49287",0.25 µg/mL
same,MIC,"C. difficile strains; Clostridioides difficile, strain NR-49288",1 µg/mL
same,MIC,"C. difficile strains; Clostridioides difficile, strain NR-49289",1 µg/mL
same,MIC,"C. difficile strains; Clostridioides difficile, strain NR-49290",1 µg/mL
same,MIC,"C. difficile strains; Clostridioides difficile, strain NR-49291",1 µg/mL
same,MIC,"C. difficile strains; Clostridioides difficile, strain NR-49293",0.5 µg/mL
same,MIC,"C. difficile strains; Clostridioides difficile, strain NR-49295",1 µg/mL
same,MIC,"C. difficile strains; Clostridioides difficile, strain NR-49296",1 µg/mL
same,MIC,"C. difficile strains; Clostridioides difficile, strain NR-49297",1 µg/mL
same,MIC,"C. difficile strains; Clostridioides difficile, strain NR-49298",1 µg/mL
same,MIC,"C. difficile strains; Clostridioides difficile, strain NR-49299",1 µg/mL
same,MIC,"C. difficile strains; Clostridioides difficile, strain NR-49300",1 µg/mL
same,MIC,"C. difficile strains; Clostridioides difficile, strain NR-49301",0.5 µg/mL
same,MIC,"C. difficile strains; Clostridioides difficile, strain NR-49303",1 µg/mL
same,MIC,"C. difficile strains; Clostridioides difficile, strain NR-49304",1 µg/mL
same,MIC,"C. difficile strains; Clostridioides difficile, strain NR-49306",0.5 µg/mL
same,MIC,"C. difficile strains; Clostridioides difficile, strain NR-49307",0.5 µg/mL
same,MIC,"C. difficile strains; Clostridioides difficile, strain NR-49308",0.5 µg/mL
same,MIC,"C. difficile strains; Clostridioides difficile, strain NR-49309",0.5 µg/mL
same,MIC,"C. difficile strains; Clostridioides difficile, strain NR-49311",1 µg/mL
same,MIC,"C. difficile strains; Clostridioides difficile, strain NR-49312",0.5 µg/mL
same,MIC,"C. difficile strains; Clostridioides difficile, strain NR-49313",0.5 µg/mL
same,MIC,"C. difficile strains; Clostridioides difficile, strain NR-49314",0.5 µg/mL
same,MIC,"C. difficile strains; Clostridioides difficile, strain NR-49315",0.5 µg/mL
same,MIC,"C. difficile strains; Clostridioides difficile, strain NR-49316",1 µg/mL
same,MIC,"C. difficile strains; Clostridioides difficile, strain NR-49317",1 µg/mL
same,MIC,"C. difficile strains; Clostridioides difficile, strain NR-49319",0.25 µg/mL
same,MIC,"C. difficile strains; Clostridioides difficile, strain NR-49320",0.5 µg/mL
same,MIC,"C. difficile strains; Clostridioides difficile, strain NR-49321",1 µg/mL
same,MIC,"C. difficile strains; Clostridioides difficile, strain NR-49323",0.5 µg/mL
same,MIC,"C. difficile strains; Clostridioides difficile, strain NR-49324",1 µg/mL
same,MIC,"C. difficile strains; Clostridioides difficile, strain NR-49325",0.25 µg/mL
same,MIC,"C. difficile strains; Clostridioides difficile, strain NR-49326",0.5 µg/mL
same,MIC,"C. difficile strains; Clostridioides difficile, strain NR-49327",0.25 µg/mL
same,MIC,"C. difficile strains; Clostridioides difficile, strain NR-49328",2 µg/mL
same,MIC,"C. difficile strains; Clostridioides difficile, strain NR-49329",0.5 µg/mL
same,MIC,"C. difficile strains; Clostridioides difficile, strain RMA23691",1 µg/mL
same,MIC,"C. difficile strains; Clostridioides difficile, strain RMA23828",1 µg/mL
same,MIC,"C. difficile strains; Clostridioides difficile, strain RMA24531",0.125 µg/mL
same,MIC,"C. difficile strains; Clostridioides difficile, strain RMA24923",0.125 µg/mL
same,MIC,"C. difficile strains; Clostridioides difficile, strain RMA26675",2 µg/mL
same,MIC,"C. difficile strains; Clostridioides difficile, strain RMA27081",1 µg/mL
same,MIC,"C. difficile strains; Clostridioides difficile, strain RMA27173",2 µg/mL
same,MIC50,"C. difficile strains; Clostridioides difficile, 101 C. difficile strains, read-out: MIC50",0.5 µg/mL
same,MIC90,"C. difficile strains; Clostridioides difficile, 101 C. difficile strains, read-out: MIC90",1 µg/mL
same,MIC90,"C. difficile strains; Clostridioides difficile, 101 C. difficile strains, read-out: MIC90 (101 strains)",1 µg/mL
same,MIC,[10],128 µg/mL
same,passages after which MIC increased 2-fold,C. difficile ATCC 43255; 2-fold MIC increase,8 passages
same,passages after which MIC increased 4-fold,C. difficile ATCC 43255; 4-fold MIC increase,14 passages
same,passages after which MIC increased 8-fold,C. difficile ATCC 43255; 8-fold MIC increase,20 passages
same,increase in MIC on serial passage,C. difficile ATCC 43255; whole serial passage experiment (30 passages),8 fold
Oc1ccc(-c2nc(-c3ccc(OC4CCCC4)cc3)no2)cc1 [Compound 2],MIC,[5],4 µg/mL
same,MIC,[6],2 µg/mL
same,MIC,E. aerogenes ATCC35029,>128 µg/mL
same,MIC,E. coli ATCC25922,>128 µg/mL
"CCc1c(Cl)c(O)c(Cl)c(O)c1C(=O)O[C@H]1[C@H](O)[C@H](OC)[C@H](OC/C2=C\C=C\C[C@H](O)/C(C)=C/[C@H](CC)[C@@H](O[C@@H]3OC(C)(C)[C@@H](OC(=O)C(C)C)[C@H](O)[C@@H]3O)/C(C)=C/C(C)=C/C[C@@H]([C@@H](C)O)OC2=O)O[C@@H]1C [FDX, fidaxomicin]",recurrence of infection,[4],15%
same,MIC,S. oralis ATCC 9811,32 µg/mL
